Where a name gives a salt, the structure may show the parent alone. Read-outs that look alike come from different tables or passages of the source.
How the values were obtained:
[1] = target: T1, 14-3-3ζ:BAD-112-136F interactions (Homo sapiens, UniProt P63104); assay: BRET sensor screen for disruption of 14-3-3ζ-Rluc8:BAD-112-136F-mCitrine in living NIH-3T3 cells; format: cell-based, murine; parameters: inhibition: dose or concentration left out as unconfirmed; BRET reduction on NIH-3T3: unit not given here; settings: for inhibition / inhibition at 20 µM: NIH3T3, 3 h, read-out: BRET reduction on NIH-3T3
T1 construct: expressed in transfected cells; host or cells: NIH-3T3 fibroblasts, bi-directional pBI-CMV1 plasmid
T1 sequence (P63104 1-245): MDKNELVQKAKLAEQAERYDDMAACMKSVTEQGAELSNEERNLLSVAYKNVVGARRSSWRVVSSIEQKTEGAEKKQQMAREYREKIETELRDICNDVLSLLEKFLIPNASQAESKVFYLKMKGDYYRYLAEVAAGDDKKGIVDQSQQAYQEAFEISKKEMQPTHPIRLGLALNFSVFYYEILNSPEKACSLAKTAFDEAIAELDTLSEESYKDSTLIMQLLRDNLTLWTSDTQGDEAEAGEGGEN
Experimental: The Z’-score, which evaluates the robustness of an HTS assay readout, was calculated according to standard protocols. For the HTS, 384-well plates were coated with 100 μg/mL poly-L-ornithine (Sigma, Missouri, United States; #P3655) overnight at 37 °C, followed by rinsing with sterilized water. NIH-3T3 cells were transfected with the BRET sensor two days prior to experimentation, followed by replating onto the pre-coated 384-well plates at a density of 20,000 cells/well. After 24 h of incubation at 37 °C, growth media was replaced by Krebs buffer (pH 7.4).

NIH-3T3 cells = assay: Hoechst/propidium iodide cell death assay in NIH-3T3; format: cell-based; settings: for cytotoxicity at 20 µM: Mus musculus, NIH3T3, 24 h, read-out: Percentage of cell death % 24h NIH3t3; for cytotoxicity at 20 µM / Percentage of cell death % 24h NIH3t3: 24 h, 20 µM
Excerpt: (§1) A high-content imaging system (PerkinElmer; Operetta CLS), was used to quantify cell death and apoptosis by calculating the number of propidium iodide-positive cells relative to Hoechst-positive cells, and the number of Annexin V-positive cells relative to Hoechst-positive cells, respectively.

HT-29 cells = assay: Hoechst/propidium iodide cell death assay in HT-29; format: cell-based, human; settings: for cytotoxicity at 20 µM: Homo sapiens
Excerpt: as §1

[2] = NIH-3T3 cells, hits from the primary screen
[3] = NIH-3T3 expressing BRET sensor, 20 µM, 3 h
[4] = HT-29, 24 h, 20 µM, 24 h, read-out: Percentage of cell death % 24h HT-29
[5] = HT-29, 48 h, HT-29, 48h, 20 μM, read-out: Percentage of cell death % 48h, HT-29

CC1(C)[C@@H](O)CC[C@]2(C)[C@H]3C(=O)C=C4[C@@H]5C[C@@](C)(C(=O)O)CC[C@]5(C)CC[C@@]4(C)[C@]3(C)CC[C@@H]12 [Enoxolone]
inhibition [1, 2]: 42.9% | inhibition at 20 µM [1, 3]: 42.9% | cytotoxicity at 20 µM (NIH-3T3 cells): 4.15% | Percentage of cell death % 48h, NIH3T3 (NIH-3T3 cells): 0.6522% | cytotoxicity at 20 µM (HT-29 cells; [4]): 0.697% | cytotoxicity at 20 µM (HT-29 cells; [5]): 1.61%

CN1CCN(c2ccc(C(=O)Nc3n[nH]c4ccc(Cc5cc(F)cc(F)c5)cc34)c(NC3CCOCC3)c2)CC1 [Entrectinib]
inhibition [1, 2]: 56.8% | inhibition at 20 µM [1, 3]: 56.8% | cytotoxicity at 20 µM (NIH-3T3 cells): 81.5% | Percentage of cell death % 48h, NIH3T3 (NIH-3T3 cells): 85.5203% | cytotoxicity at 20 µM (HT-29 cells; [4]): 58.1% | cytotoxicity at 20 µM (HT-29 cells; [5]): 80.4%

CCOC(=O)C1=C(C)NC(C)=C(C(=O)OC)C1c1cccc(Cl)c1Cl (stereo not drawn) [Felodipine]
inhibition [1, 2]: 27.6% | inhibition at 20 µM [1, 3]: 27.6% | cytotoxicity at 20 µM (NIH-3T3 cells): 6.69% | Percentage of cell death % 48h, NIH3T3 (NIH-3T3 cells): 43.2531% | cytotoxicity at 20 µM (HT-29 cells; [4]): 3.81% | cytotoxicity at 20 µM (HT-29 cells; [5]): 6.71%

Clc1ccc(C(Cn2ccnc2)OCc2ccc(Sc3ccccc3)cc2)c(Cl)c1 (stereo not drawn) [Fenticonazole Nitrate]
inhibition [1, 2]: 31.7% | inhibition at 20 µM [1, 3]: 31.7% | cytotoxicity at 20 µM (NIH-3T3 cells): 0.773% | Percentage of cell death % 48h, NIH3T3 (NIH-3T3 cells): 1.538% | cytotoxicity at 20 µM (HT-29 cells; [4]): 0.786% | cytotoxicity at 20 µM (HT-29 cells; [5]): 1.58%

CCc1c(Cl)c(O)c(Cl)c(O)c1C(=O)O[C@H]1[C@H](O)[C@H](OC)[C@H](OC/C2=C\C=C\C[C@H](O)/C(C)=C/[C@H](CC)[C@@H](O[C@@H]3OC(C)(C)[C@@H](OC(=O)C(C)C)[C@H](O)[C@@H]3O)/C(C)=C/C(C)=C/C[C@@H]([C@@H](C)O)OC2=O)O[C@@H]1C [Fidaxomicin]
inhibition [1, 2]: 32.5% | inhibition at 20 µM [1, 3]: 32.5% | cytotoxicity at 20 µM (NIH-3T3 cells): 1.82% | Percentage of cell death % 48h, NIH3T3 (NIH-3T3 cells): 1.5823% | cytotoxicity at 20 µM (HT-29 cells; [4]): 2.31% | cytotoxicity at 20 µM (HT-29 cells; [5]): 52.8%

CC[C@H](c1ccc(O)cc1)[C@@H](CC)c1ccc(O)cc1 [Hexestrol]
inhibition [1, 2]: 36.7% | inhibition at 20 µM [1, 3]: 36.7% | cytotoxicity at 20 µM (NIH-3T3 cells): 5.47% | Percentage of cell death % 48h, NIH3T3 (NIH-3T3 cells): 3.549% | cytotoxicity at 20 µM (HT-29 cells; [4]): 1.37% | cytotoxicity at 20 µM (HT-29 cells; [5]): 3.31%

Cc1cc(Nc2ncc(Cl)c(Nc3ccccc3S(=O)(=O)C(C)C)n2)c(OC(C)C)cc1C1CCNCC1 [LDK378]
inhibition [1, 2]: 46.5% | inhibition at 20 µM [1, 3]: 46.5% | cytotoxicity at 20 µM (NIH-3T3 cells): 80.9% | Percentage of cell death % 48h, NIH3T3 (NIH-3T3 cells): 75.6563% | cytotoxicity at 20 µM (HT-29 cells; [4]): 92.1% | cytotoxicity at 20 µM (HT-29 cells; [5]): 89.8%

CC1(C)Cc2c(-c3ccccc3)c(-c3ccc(Cl)cc3)c(CC(=O)O)n2C1 [Licofelone]
inhibition [1, 2]: 33% | inhibition at 20 µM [1, 3]: 33% | cytotoxicity at 20 µM (NIH-3T3 cells): 0.823% | Percentage of cell death % 48h, NIH3T3 (NIH-3T3 cells): 0.4583% | cytotoxicity at 20 µM (HT-29 cells; [4]): 2.67% | cytotoxicity at 20 µM (HT-29 cells; [5]): 3.98%

NC(=O)N1CCC(CC(=O)N2CCC([C@H]3c4ncc(Br)cc4CCc4cc(Cl)cc(Br)c43)CC2)CC1 [Lonafarnib]
inhibition [1, 2]: 40.6% | inhibition at 20 µM [1, 3]: 40.6% | cytotoxicity at 20 µM (NIH-3T3 cells): 36.3% | Percentage of cell death % 48h, NIH3T3 (NIH-3T3 cells): 40.7575% | cytotoxicity at 20 µM (HT-29 cells; [4]): 1.12% | cytotoxicity at 20 µM (HT-29 cells; [5]): 1.7%

Clc1ccc(COC(Cn2ccnc2)c2ccc(Cl)cc2Cl)c(Cl)c1 (stereo not drawn) [Miconazole Nitrate]
BRET reduction on NIH-3T3 [1, 2]: 52.8386 | BRET reduction on NIH-3T3 [1, 3]: 52.8386 | Percentage of cell death % 24h NIH3t3 (NIH-3T3 cells): 12.1676% | Percentage of cell death % 48h, NIH3T3 (NIH-3T3 cells): 6.033% | Percentage of cell death % 24h HT-29 (HT-29 cells; 20 µM, 24 h): 5.26% | Percentage of cell death % 48h, HT-29 (HT-29 cells; HT-29, 48h, 20 μM): 9.591%

Clc1ccc(COC(Cn2ccnc2)c2ccc(Cl)cc2Cl)c(Cl)c1 (stereo not drawn) [Miconazole]
inhibition [1, 2]: 48.7% | inhibition at 20 µM [1, 3]: 48.7% | Percentage of cell death % 24h NIH3t3 (NIH-3T3 cells): 6.07% | Percentage of cell death % 48h, NIH3T3 (NIH-3T3 cells): 3.437% | cytotoxicity at 20 µM (HT-29 cells; [4]): 2.78% | cytotoxicity at 20 µM (HT-29 cells; [5]): 5.75%

Clc1ccc(C(c2ccccc2Cl)C(Cl)Cl)cc1 (stereo not drawn) [Mitotane (Lsodren), Mitotane]
inhibition [1, 2]: 25.6% | inhibition at 20 µM [1, 3]: 25.6% | cytotoxicity at 20 µM (NIH-3T3 cells): 25.3% | Percentage of cell death % 48h, NIH3T3 (NIH-3T3 cells): 5.575% | cytotoxicity at 20 µM (HT-29 cells; [4]): 0.553% | cytotoxicity at 20 µM (HT-29 cells; [5]): 1.62%

O=C1c2c(O)ccc(O)c2C(=O)c2c(NCCNCCO)ccc(NCCNCCO)c21 [Mitoxantrone HCl]
inhibition [1, 2]: 25.5% | inhibition at 20 µM [1, 3]: 25.5% | cytotoxicity at 20 µM (NIH-3T3 cells): 0.018% | Percentage of cell death % 48h, NIH3T3 (NIH-3T3 cells): 0% | cytotoxicity at 20 µM (HT-29 cells; [4]): 0% | cytotoxicity at 20 µM (HT-29 cells; [5]): 0.0037%

CC(C)(O)c1ccccc1CC[C@@H](SCC1(CC(=O)O)CC1)c1cccc(/C=C/c2ccc3ccc(Cl)cc3n2)c1 [Montelukast Sodium]
inhibition [1, 2]: 30.9% | inhibition at 20 µM [1, 3]: 30.9% | cytotoxicity at 20 µM (NIH-3T3 cells): 14.8% | Percentage of cell death % 48h, NIH3T3 (NIH-3T3 cells): 2.7667% | cytotoxicity at 20 µM (HT-29 cells; [4]): 0.524% | cytotoxicity at 20 µM (HT-29 cells; [5]): 1.19%

CC[C@H]1[C@@H](O)[C@@H]2[C@H](CC[C@]3(C)[C@@H]([C@H](C)CCC(=O)O)CC[C@@H]23)[C@@]2(C)CC[C@@H](O)C[C@@H]12 [Obeticholic Acid]
inhibition [1, 2]: 36.4% | inhibition at 20 µM [1, 3]: 36.4% | cytotoxicity at 20 µM (NIH-3T3 cells): 1.16% | Percentage of cell death % 48h, NIH3T3 (NIH-3T3 cells): 0.273% | cytotoxicity at 20 µM (HT-29 cells; [4]): 0.566% | cytotoxicity at 20 µM (HT-29 cells; [5]): 1.41%

CCOc1cc(CC(=O)N[C@@H](CC(C)C)c2ccccc2N2CCCCC2)ccc1C(=O)O [Repaglinide]
inhibition [1, 2]: 28.4% | inhibition at 20 µM [1, 3]: 28.4% | cytotoxicity at 20 µM (NIH-3T3 cells): 0.236% | Percentage of cell death % 48h, NIH3T3 (NIH-3T3 cells): 0.185% | cytotoxicity at 20 µM (HT-29 cells; [4]): 0.354% | cytotoxicity at 20 µM (HT-29 cells; [5]): 1.01%

CC(C)=CCC/C(C)=C/CC/C(C)=C/CSc1ccccc1C(=O)O [Salirasib]
inhibition [1, 2]: 45.5% | inhibition at 20 µM [1, 3]: 45.5% | cytotoxicity at 20 µM (NIH-3T3 cells): 3.71% | Percentage of cell death % 48h, NIH3T3 (NIH-3T3 cells): 1.2519% | cytotoxicity at 20 µM (HT-29 cells; [4]): 0.693% | cytotoxicity at 20 µM (HT-29 cells; [5]): 1.28%

Clc1ccc(C(Cn2ccnc2)OCc2csc3c(Cl)cccc23)c(Cl)c1 (stereo not drawn) [Sertaconazole nitrate]
inhibition [1, 2]: 46.8% | inhibition at 20 µM [1, 3]: 46.8% | cytotoxicity at 20 µM (NIH-3T3 cells): 4.15% | Percentage of cell death % 48h, NIH3T3 (NIH-3T3 cells): 10.0161% | cytotoxicity at 20 µM (HT-29 cells; [4]): 2.46% | cytotoxicity at 20 µM (HT-29 cells; [5]): 4.64%

C=CC[C@@H]1/C=C(\C)C[C@H](C)C[C@H](OC)[C@H]2O[C@@](O)(C(=O)C(=O)N3CCCC[C@H]3C(=O)O[C@H](/C(C)=C/[C@@H]3CC[C@@H](O)[C@H](OC)C3)[C@H](C)[C@@H](O)CC1=O)[C@H](C)C[C@@H]2OC [Tacrolimus (FK506), Tacrolimus]
inhibition [1, 2]: 26% | inhibition at 20 µM [1, 3]: 26% | cytotoxicity at 20 µM (NIH-3T3 cells): 0.808% | Percentage of cell death % 48h, NIH3T3 (NIH-3T3 cells): 0.523% | cytotoxicity at 20 µM (HT-29 cells; [4]): 0.958% | cytotoxicity at 20 µM (HT-29 cells; [5]): 2.46%

CC/C(=C(\c1ccccc1)c1ccc(OCCN(C)C)cc1)c1ccccc1 [Tamoxifen Citrate]
inhibition [1, 2]: 51.8% | inhibition at 20 µM [1, 3]: 51.8% | cytotoxicity at 20 µM (NIH-3T3 cells): 76.5% | Percentage of cell death % 48h, NIH3T3 (NIH-3T3 cells): 76.3192% | cytotoxicity at 20 µM (HT-29 cells; [4]): 5.86% | cytotoxicity at 20 µM (HT-29 cells; [5]): 63.3%

Reference: article PMC12603070, “A high-throughput screening approach to discover potential colorectal cancer chemotherapeutics: repurposing drugs to identify novel disruptors of 14-3-3 proteins” (Cell Death & Disease, 2025)
